From patent US9073835B2, “N-acylthiourea and N-acylurea inhibitors of the Hedgehog protein signalling pathway” (Centre National De La Recherche Scientifique, priority 2008, dated 2015)
pIC50: −log10 of the molar value.

Assays:
[1] = biological target: T1, mouse Smoothened protein (Mus musculus, UniProt P56726); assay: Competitive Bodipycyclopamine binding on HEK293 cells transfected with mouse Smoothened; conditions: for Bodipycyclopamine binding competition: fluorescence microscopy, FIGS. 2 and 3; for pIC50: 5 nM Bodipycyclopamine, 2 hours at 37° C., HEK293 cells expressing mouse Smoothened
T1 construct: expressed in transfected cells; host or cells: HEK293
T1 sequence (P56726 33-793): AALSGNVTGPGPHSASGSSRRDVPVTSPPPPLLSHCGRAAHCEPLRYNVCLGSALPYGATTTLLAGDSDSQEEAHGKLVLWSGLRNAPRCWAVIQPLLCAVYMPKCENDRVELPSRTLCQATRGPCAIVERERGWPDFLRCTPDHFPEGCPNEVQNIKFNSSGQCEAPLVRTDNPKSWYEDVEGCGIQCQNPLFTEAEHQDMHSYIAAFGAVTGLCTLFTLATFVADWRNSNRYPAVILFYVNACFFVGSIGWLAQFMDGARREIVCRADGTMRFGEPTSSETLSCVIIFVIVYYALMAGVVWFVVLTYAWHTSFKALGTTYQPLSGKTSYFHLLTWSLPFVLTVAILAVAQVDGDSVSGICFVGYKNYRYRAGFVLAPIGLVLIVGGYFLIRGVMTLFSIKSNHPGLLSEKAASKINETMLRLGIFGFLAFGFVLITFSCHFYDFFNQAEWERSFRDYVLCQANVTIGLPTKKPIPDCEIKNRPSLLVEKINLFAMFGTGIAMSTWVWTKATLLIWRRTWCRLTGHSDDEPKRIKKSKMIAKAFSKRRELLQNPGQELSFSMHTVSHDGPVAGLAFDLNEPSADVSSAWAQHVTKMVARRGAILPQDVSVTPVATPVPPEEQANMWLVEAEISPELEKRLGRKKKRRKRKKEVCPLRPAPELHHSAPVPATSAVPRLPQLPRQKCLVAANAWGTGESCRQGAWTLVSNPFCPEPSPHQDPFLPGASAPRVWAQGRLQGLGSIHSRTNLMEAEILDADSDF
Experimental: HEK293 cells were plated in a quantity of 70 000 cells per well onto glass cover slips treated with poly-D-lysine into 24-well plates, and transfected the next day with 0.25 μg of plasmid encoding the mouse Smoothened protein (Masdeu C., Faure H., Coulombe J., Schoenfelder A., Mann A., Brabet I., Pin J-P., Traiffort E. and Ruat M., Identification and characterization of Hedgehog modulator properties after functional coupling of Smoothened to G15, Biochem Biophys Res. Commun., 2006, 349:471-479), using 0.7 μL of fugene6 (Roche Biochemicals). After 48 hours, the culture medium was eliminated, the cells were rinsed once with 1 mL of a phosphate buffer solution, PBS (Phosphate Buffered Saline), then fixed for 20 minutes in the presence of an iced 4% solution of paraformaldehyde (PFA) and 0.12M glucose in a PBS phosphate buffer solution. The cells were then rinsed twice and washed twice for 5 minutes with 1 mL of a phosphate buffer solution and 0.5% of fetal calf serum (PBS-FCS). Next, 1 mL of Bodipycyclopamine (BC) (Chen, J. K., Taipale, J., Cooper, M. K., and Beachy, P. A., Genes Dev., 2002, 16 (21), 2743-2748), diluted to 5 nM in PBS-FCS, in the presence of compounds 31 and 38 of the invention, was applied to the cells for 2 hours at 37° C. The cells were then washed twice for 5 minutes with 1 mL of PBS-FCS and brought into the presence of 1 mL of a PBS 1× phosphate buffer solution. Finally, the cover slips were mounted on a glass slide in the presence of Vectashield containing DAPI (4′,6′-DiAmidino-2-Phenyl Indole) to stain the cell nuclei (Vector).
In FIG. 2, the intensity of the fluorescence was analyzed using Simple PCI 6.2 software (Hamamatsu Corporation), then related to the surface area of the nuclei present in the photograph.

[2] = test system: Hedgehog protein signaling pathway; assay: Inhibition of SAG-induced alkaline phosphatase activity (differentiation) in C3H10T1/2 cells; format: cell-based; conditions: for inhibition at 10 µM: C3H 10T1/2, 10 μM test compound
Experimental: The effect of compounds with formula (I) as claimed in the invention on inhibition of the Hedgehog protein signaling pathway was determined by analysis of differentiation in the pluripotent fibroblast cell line C3H10T1/2 after activation of this pathway in these cells using a synthetic activator: SAG.
The compounds with formula (I) to be tested were dissolved in dimethylsulfoxide to a concentration of 10 mM, then stored at a temperature of −20° C. until use.
The pluripotent fibroblast cell line C3H10T1/2 (ATCC) was cultivated under the conditions recommended by the ATCC. These cells were activated using 0.1 μM of SAG, employing the methods described by Chen et al., Proc. Natl. Acad. Sci. USA, 2002, 99, 14071 and Frank-Kamenetsky et al., J. Biol., 2002, 1, 10.
Activation with SAG provokes differentiation of the cell line and allows them to express alkaline phosphatase. It is then possible to measure the activity of the Hedgehog protein signaling pathway by measuring the alkaline phosphatase activity.
The C3H10T1/2 cells were plated onto 96-well plates at a density of […], 24 hours before addition of the test compounds in a concentration of 1 nM to 30 μM and in the presence of 0.1 μM of SAG using DMEM supplemented with 10% fetal calf serum as the culture medium. The tests were carried out in quadruplicate. The plates were then incubated for 5-6 days at a temperature of 37° C. in an atmosphere of 5% CO2. The cells were washed in a cold phosphate buffer (“Phosphate Buffer Serum”: PBS) then lysed by sonication at 4° C. in 50 μl of a solution containing 0.9% of NaCl and 0.2% of Triton X-100.
By way of comparison, the activity of a known inhibitor of the Hedgehog protein signaling pathway, CURIS 61 414, as described, for example, by Frank-Kamenetsky M. et al. (J. Biol., 2002, 1, 10), was tested under the same conditions as those used to test the various compounds with formula (I) as claimed in the invention.
The alkaline phosphatase activity measurement in the lysates obtained was then carried out using the method described by Pepinsky et al. (J. Biol. Chem., 1998, 273, 14037). After adding 100 μl of reaction buffer (200 mM Tris-HCl; pH 10.5; 0.4 M of 2-amino-2-methylpropanol and 8 mM of MgCl2) and 50 μl of substrate (4 mM of disodium p-nitrophenyl phosphate), the lysates were incubated at 37° C. for 30-60 min, then the optical density was read at a wavelength of 415 nm.

[3] = Mus musculus, percentage of alkaline phosphatase activity induced by SAG
[4] = Mus musculus, C3H 10T1/2, after induction by 0.1 μM SAG

Bodipycyclopamine binding competition [1]	pIC50 [1]	IC50 [2, 4] [µM]	IC50 ([2]; after induction by 0.1 μM SAG) [µM]	melting point [°C]	Compound	inhibition at 10 µM [2, 3] [%]	% INHIBITION of alkaline phosphatase activity ([2]; 10 μM test compound, percentage of alkaline phosphatase activity induced by SAG)
binding competition was observed	6.92	0.01 to 1			COc1cc(C(=O)NC(=O)Nc2cccc(NC(=O)c3ccccc3)c2)cc(OC)c1OC [Compound 31, N-[[[3-(benzoylamino)phenyl]amino]oxomethyl]-3,4,5-methoxy-benzamide]	> 80	
binding competition was observed	6.30		0.01 to 1		N-[[[3-(benzoylamino)phenyl]amino]thioxomethyl]-3,4,5-methoxy-benzamide [Compound 38]		A (the letter A corresponds to an inhibition of more than 80%)
		1 to 3		147	COc1ccc(C(=O)Nc2cccc(NC(=S)NC(=O)c3cc(OC)c(OC)c(OC)c3)c2)cc1 [Compound 1, N-[[[3-(4-methoxy-benzoylamino)phenyl]amino]thioxomethyl]-3,4,5-methoxy-benzamide]	> 80	
					COc1cc(C(=O)NC(=S)Nc2cccc(NC(=O)C3CCCCC3)c2)cc(OC)c1OC [Compound 8, N-[[[3-(-cyclohexylcarboxylamino)phenyl]amino]thioxomethyl]-3,4,5-methoxy-benzamide]	20 to 80	

Compound	Bodipycyclopamine binding competition [1]	pIC50 [1]	IC50 [2, 4] [µM]	IC50 ([2]; after induction by 0.1 μM SAG) [µM]	melting point [°C]	inhibition at 10 µM [2, 3] [%]	% INHIBITION of alkaline phosphatase activity ([2]; 10 μM test compound, percentage of alkaline phosphatase activity induced by SAG)
CC1=C2C[C@H]3[C@@H](CC=C4C[C@@H](O)CC[C@@]43C)[C@@H]2CC[C@]12O[C@@H]1C[C@H](C)CN[C@H]1[C@H]2C [Cyclopamine, reference compound]	binding competition was observed						
